Source: PubChem BioAssay (NCI)
Where “and” joins values, the source holds several entries; their conditions need not be identical. Identical values can stand only once.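 Where inhibition never reached the appropriate level, the endpoint shown equals the highest concentration tested. Otherwise, values were interpolated linearly from a five-concentration, 48-hour dose response in 96-well plates. GI50 marks 50% less growth. TGI: concentration producing complete growth inhibition.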

Experiments:
Experiment in all cases: DTP human tumour cell line panel, 48 h
A549 NSCLC = test system: A549 NSCLC
NCI-H23 lung = test system: NCI-H23 lung
HS 578T breast = test system: HS 578T breast
OVCAR-8 ovarian = test system: OVCAR-8 ovarian
SN12C renal = test system: SN12C renal
TK-10 renal = test system: TK-10 renal
SK-MEL-28 melanoma = test system: SK-MEL-28 melanoma
OVCAR-4 ovarian = test system: OVCAR-4 ovarian
UACC-257 melanoma = test system: UACC-257 melanoma
IGROV1 ovarian = test system: IGROV1 ovarian

SMILES	GI50 (A549 NSCLC) [µM]	TGI (A549 NSCLC)	GI50 (NCI-H23 lung) [µM]	TGI (NCI-H23 lung)	GI50 (HS 578T breast) [µM]	TGI (HS 578T breast)	GI50 (OVCAR-8 ovarian) [µM]	TGI (OVCAR-8 ovarian)	GI50 (SN12C renal) [µM]	TGI (SN12C renal)	GI50 (TK-10 renal)	TGI (TK-10 renal)	GI50 (SK-MEL-28 melanoma) [µM]	TGI (SK-MEL-28 melanoma)	GI50 (OVCAR-4 ovarian) [µM]	TGI (OVCAR-4 ovarian)	GI50 (UACC-257 melanoma) [µM]	TGI (UACC-257 melanoma)	GI50 (IGROV1 ovarian)	TGI (IGROV1 ovarian)
Cc1cccc2c1ccc1c3occ(C)c3c(=O)oc21	> 100	> 100 µM	> 100	> 100 µM	> 100	> 100 µM	> 100	> 100 µM	> 100	> 100 µM	> 100 µM	> 100 µM	> 100	> 100 µM	> 100	> 100 µM	> 100	> 100 µM	> 100 µM	> 100 µM
COc1ccc(CCN2COc3ccc4ccc(=O)oc4c3C2)cc1OC	–	> 100 µM	–	> 100 µM	–	> 100 µM	–	> 100 µM	–	> 100 µM	–	> 100 µM	–	> 100 µM	–	> 100 µM	–	> 100 µM	–	> 100 µM
CS(=O)(=O)c1ccc(-c2[nH]c3ccc(F)cc3c2/C=N/NC(N)=S)cc1	2.86	> 100 µM	4.66	> 100 µM	0.293	7.74 µM	2.76	> 100 µM	3.14	> 100 µM	5.88 µM	> 100 µM	12.3	> 100 µM	13.4	> 100 µM	> 100	> 100 µM	4.95 µM	> 100 µM
CC#CC(=O)N[C@H]1CCCN(c2c(F)cc(C(N)=O)c3[nH]c(C)c(C)c23)C1	21.3	70.2 µM	19.5	41.8 µM	16.4	83.3 µM	26.1	94.7 µM	20.4	58.2 µM	24.5 µM	95.7 µM	17.4	35.6 µM	22.5	81.3 µM	14.5	34.9 µM	14 µM	31.6 µM
O=C(O)C1CCCCC1C(=O)Nc1nc2ccccc2[nH]1 (stereo not given)	–	> 100 µM	–	> 100 µM	–	> 100 µM	–	> 100 µM	–	> 100 µM	–	> 100 µM	–	> 100 µM	–	> 100 µM	–	> 100 µM	–	> 100 µM
O=C(O)CP(=O)(c1ccccc1)c1ccccc1.O=C(O)CP(=O)(c1ccccc1)c1ccccc1.[Cd]	17.1	35.1 µM	20.2	41.9 µM	19.4	> 100 µM	32.7	> 100 µM	16.4	31.1 µM	16.9 µM	34.5 µM	17.9	41.8 µM	13.3	34.1 µM	15.4	31.4 µM	16.6 µM	37.1 µM
Cc1[nH]c2ccccc2c1C1=CC(=O)C=CC1=O	21	63.9 µM	13	31.5 µM	8.86	53.3 µM	13.2	34.9 µM	14.4	32 µM	2.32 µM	5.85 µM	14.1	27.4 µM	4.2	15.3 µM	14.3	28.6 µM	12 µM	27.2 µM
O=C1CCCC(=O)C1C(=O)c1ccc(C(F)(F)F)cc1[N+](=O)[O-]	> 100	> 100 µM	> 100	> 100 µM	> 100	> 100 µM	> 100	> 100 µM	> 100	> 100 µM	> 100 µM	> 100 µM	> 100	> 100 µM	> 100	> 100 µM	> 100	> 100 µM	> 100 µM	> 100 µM
COCO[C@@H]1CC2C=Nc3cc(OCc4ccccc4)c(OC)cc3C(=O)N2C1 (stereo not given in full)	0.468	9.15 µM	0.672	1.97 µM	0.572	4.97 µM	0.348	6.52 µM	0.49	2.14 µM	0.869 µM	–	1.6	12.6 µM	1.32	27.5 µM	1.09	–	0.436 µM	20.5 µM
CNc1ccc(C(=O)CC(O)CCC(C)C2OC(=O)CC(O)CC(=O)CC(O)CC(O)CC(O)CC(O)CC3(O)CC(O)C(C(=O)NCCc4ccccn4)C(CC(OC4OC(C)C(O)C(N)C4O)/C=C/C=C/C=C/C=C\C=C/C=C/C=C/C2C)O3)cc1 (stereo not given)	–	–	0.118	0.271 µM	0.489	2.61 µM	0.747	–	0.961	2.09 µM	0.128 µM	0.499 µM	0.161	> 50 µM	0.868	> 50 µM	–	–	–	> 50 µM
O=C(NCc1cccs1)OC1CC2CCC1C2 (stereo not given)	–	> 100 µM	–	> 100 µM	–	> 100 µM	–	> 100 µM	–	> 100 µM	–	> 100 µM	–	> 100 µM	–	> 100 µM	–	> 100 µM	–	> 100 µM
COc1ccc(OC)c(-c2cc(C(=O)O)c3cc4ccccc4cc3n2)c1	–	> 100 µM	–	> 100 µM	–	> 100 µM	–	> 100 µM	–	> 100 µM	–	> 100 µM	–	> 100 µM	–	> 100 µM	–	> 100 µM	–	> 100 µM
Cc1cc2c(=O)c3ccccc3oc2c(C#N)c1C	–	> 100 µM	–	> 100 µM	–	> 100 µM	–	> 100 µM	–	–	–	> 100 µM	–	> 100 µM	–	> 100 µM	–	> 100 µM	–	> 100 µM
C(=C\c1nc2ccccc2s1)/c1ccc(N2CCOCC2)s1	31.8	> 100 µM	80.9	> 100 µM	37	> 100 µM	35.5	> 100 µM	43.3	> 100 µM	48.4 µM	> 100 µM	> 100	> 100 µM	33.7	> 100 µM	51.3	> 100 µM	58.3 µM	> 100 µM
CN1CCN(CCCN2c3ccccc3Sc3ccc(C(F)(F)F)cc32)CC1	2.31	6.47 µM and 24.5 µM and 25.2 µM	3.29	14.1 µM and 26.7 µM and 27.7 µM	2.22	8.41 µM and 14.7 µM and 20.6 µM	1.7	3.36 µM and 33.4 µM and 30.5 µM	2.6	12.8 µM and 22.2 µM and 26.1 µM	1.78 µM and 4.01 µM and 11.6 µM	3.23 µM and 12.1 µM and 24.8 µM	–	3.27 µM and 3.46 µM and 3.58 µM	3.22	12.5 µM and 21.6 µM and 26.6 µM	–	3.73 µM and 3.75 µM and 6.55 µM	2.19 µM and 3.77 µM and 9.9 µM	4.98 µM and 11.9 µM and 23 µM
NCC(=O)NC(CO)C(=O)O (stereo not given)	–	> 100 µM	–	> 100 µM	–	> 100 µM	–	> 100 µM	–	> 100 µM	–	> 100 µM	–	> 100 µM	–	> 100 µM	–	> 100 µM	–	> 100 µM
Cc1nc2sc(C(=O)Nc3cccc(Cl)c3C)c(N)c2cc1C(=O)c1ccccc1	0.245	> 50 µM	1.14	> 50 µM	0.194	> 50 µM	0.403	> 50 µM	0.568	> 50 µM	2.48 µM	> 50 µM	1.45	> 50 µM	1.08	> 50 µM	14.6	> 50 µM	0.419 µM	> 50 µM
O=C(c1ccncc1)N1CCN(C2=NS(=O)(=O)c3ccccc3N2c2ccccc2)CC1	20.6	> 100 µM	7.43	41.6 µM	29.3	81 µM	27.7	> 100 µM	7.55	> 100 µM	31.5 µM	77.1 µM	15.6	38.7 µM	30.6	> 100 µM	21.7	63.8 µM	25.1 µM	> 100 µM
C/C=C1\C[C@@H]2C(OC)Nc3cc(O)c(OC)cc3C(=O)N2C1 (stereo not given in full)	0.0215	> 100 µM	0.00262	0.00892 µM	–	0.0575 µM and < 0.0282 µM	0.00804	0.61 µM and 1.03 µM	0.00625	–	–	–	–	0.0295 µM and 0.0176 µM	0.00355	< 0.0172 µM and 0.0101 µM	–	0.0413 µM and < 0.0126 µM	0.0159 µM	0.906 µM and 2.84 µM
COc1cc([N+](=O)[O-])c(OC)cc1-c1nc2n(c1/C(N)=N/C(=N)N)CCS2	59.3	> 100 µM	23.3	87.1 µM	32.5	> 100 µM	17.5	> 100 µM	> 100	> 100 µM	20.3 µM	96.4 µM	> 100	> 100 µM	44	> 100 µM	15.9	57 µM	17.7 µM	> 100 µM
Cc1ccc2nc(CC(=O)c3ccc4ccccc4c3)c(=O)[nH]c2c1	–	> 100 µM	–	> 100 µM	–	> 100 µM	–	> 100 µM	–	> 100 µM	–	> 100 µM	–	> 100 µM	–	> 100 µM	–	> 100 µM	–	> 100 µM
CC(=O)OC1CC(C)c2c(Cl)ncnc21 (stereo not given)	> 100	> 100 µM	> 100	> 100 µM	> 100	> 100 µM	> 100	> 100 µM	> 100	> 100 µM	> 100 µM	> 100 µM	> 100	> 100 µM	> 100	> 100 µM	–	–	> 100 µM	> 100 µM
O=C1C(Cl)=C(Nc2ccccn2)C(=O)c2ccccc21	9.02	37 µM	2.18	7.4 µM	3.65	> 100 µM	3.25	13 µM	2.33	5.17 µM	12.9 µM	25.5 µM	2.09	3.92 µM	–	–	1.91	3.84 µM	3.04 µM	8.05 µM
COc1cc(C2C(C(=O)OCc3ccccc3)=C(C)NC(C)=C2C(=O)OCc2ccccc2)cc(OC)c1OC	3.6	> 100 µM	–	–	5.61	> 100 µM	4.52	> 100 µM	–	–	–	–	–	–	3.39	> 100 µM	3.82	> 100 µM	–	–
O=C(OC(CNc1c(C(=O)c2ccccc2)c(=O)n(Cc2ccccc2)c(=O)n1Cc1ccccc1)CN1CCCCC1)c1ccccc1 (stereo not given)	50.3	> 100 µM	18.5	39.2 µM	42	> 100 µM	18.3	39.7 µM	19.3	36.9 µM	23.6 µM	71.6 µM	–	–	–	–	15.1	32.5 µM	17.4 µM	36.9 µM
Cc1nn(-c2ccccc2)c(C)c1/C=N/N1CCN(Cc2ccccc2)CC1	> 100	> 100 µM	41.7	> 100 µM	> 100	> 100 µM	> 100	> 100 µM	> 100	> 100 µM	28.7 µM	> 100 µM	80.5	> 100 µM	–	–	63	> 100 µM	–	–
COC(=O)c1cc(NC(=O)CN(CCN(CC(=O)O)CC(=O)Nc2ccc(O)c(C(=O)OC)c2)CC(=O)O)ccc1O	64.8	> 100 µM	78.9	> 100 µM	> 100	> 100 µM	77.3	> 100 µM	63.8	> 100 µM	> 100 µM	> 100 µM	> 100	> 100 µM	> 100	> 100 µM	–	–	> 100 µM	> 100 µM
C=CCCC(O)c1ccc(CCCCCCCCCCC)o1 (stereo not given)	18.6	35.1 µM	19.3	40.6 µM	12.6	30.2 µM	18.3	35.6 µM	15.6	29 µM	15.8 µM	31.9 µM	14.9	29.6 µM	–	–	18.6	33.9 µM	16.5 µM	32 µM
COc1ccc(C(=O)c2cc(OC)c(OC)c(OC)c2)cc1/C=C/C(=O)c1ccc2c(c1)OCO2	4.39	> 100 µM	2.67	8.22 µM	4.56	> 100 µM	2.32	13.1 µM	3.07	> 100 µM	3.92 µM	14.7 µM	–	–	5.05	> 100 µM	3.55	> 100 µM	3.52 µM	14.1 µM
